Laboratory results as given in the NIST ThermoML archive (doi:10.1016/j.jct.2018.01.024).

Experiment: mn = molality of the nth substance listed, in mol/kg
Details: 101 kPa, Liquid, Vibrating tube method

NC(N)=O [urea] + O
mass density [kg/m3]
Details | 274.15 K | 275.15 K | 276.15 K | 277.15 K | 278.15 K
m1 = 0.093 | 1001.57 | 1001.6 | 1001.61 | 1001.61 | 1001.59
m1 = 0.1063 | 1001.81 | 1001.84 | 1001.85 | 1001.85 | 1001.82
m1 = 0.141 | 1002.43 | 1002.45 | 1002.46 | 1002.45 | 1002.42
m1 = 0.152 | 1002.62 | 1002.64 | 1002.65 | 1002.64 | 1002.61
m1 = 0.1809 | 1003.14 | 1003.16 | 1003.16 | 1003.15 | 1003.12
m1 = 0.2423 | 1004.22 | 1004.23 | 1004.22 | 1004.2 | 1004.17
m1 = 0.4362 | 1007.6 | 1007.59 | 1007.56 | 1007.52 | 1007.46
m1 = 0.5644 | 1009.79 | 1009.77 | 1009.73 | 1009.67 | 1009.6
m1 = 1.008 | 1017.11 | 1017.04 | 1016.96 | 1016.85 | 1016.74
m1 = 1.609 | 1026.44 | 1026.31 | 1026.17 | 1026.02 | 1025.85
m1 = 2.505 | 1039.26 | 1039.07 | 1038.86 | 1038.66 | 1038.42
m1 = 3.376 | – | – | – | – | 1049.57
